Measured values: US7514406B2, “Methods for inhibiting deacetylase activity” (Fred Hutchinson Cancer Research Center, priority 2001, dated 2009)

What was measured:
[1] = test system: silenced telomeric URA3 gene; assay: URA3 telomeric silencing assay (cell-based screen for Sir2p inhibitors); set-up: species or system S. cerevisiae
Method: In order to find inhibitors of the deacetylase activity of Sir2p, screening was carried out to identify compounds that perturbed silencing at each of the loci at which Sir2p is known to act in S. cerevisiae: telomeres, HML, HMR, and the rDNA. The cell-based positive selection screen was designed so that inhibition of Sir2p activity permitted normal cell growth in order to avoid identifying cytotoxic compounds. Briefly, a yeast strain containing a marker gene, such as a nutritional marker, in close proximity to a telomeres in S. cerevisiae such that it is repressed by telomeric chromatin, is exposed to a test compound or set of test compounds dissolved in DMSO and cultured under suitable conditions and in media supplemented to permit growth only under conditions in which the marker gene is expressed. After a suitable interval, the optical density of the culture is measured. An increase in optical density corresponds to growth indicating a perturbation of silencing of the marker gene. All strains in this and other examples herein can be grown in synthetic complete media (SC) or selective synthetic drop-out media containing 2% glucose.
Initial screening for compounds that effect silencing was carried out using a URA3 assay. […] Eleven compounds identified in this primary screen were analyzed further to determine whether silencing at the HML and HMR loci was also affected.

[2] = test system: TRP1 gene integrated at the silent HMR locus; assay: TRP1 reporter at silent HMR locus growth assay; assay type: cell-based, S. cerevisiae; settings: tryptophan-deficient media, 36-48 h
Method: A secondary screening of the eleven identified compounds was carried out using a TRP1 gene which utilized a yeast strain with a TRP1 gene integrated at the silent HMR locus cannot grow in media lacking tryptophan (Buck, S. W. & Shore, D. (1995) Genes Dev. 9, 370-84). Using the method essentially described above, wells in a 96-well plate were inoculated with 150 μL of yeast culture (a yeast strain with a TRP1 gene integrated at the silent HMR locus), containing 1×10^5 cell/ml in tryptophan-deficient media. The eleven compounds dissolved in DMSO were added to the cells and the cultures are incubated for 36-48 h and growth in individual wells is tested by optical density (OD660) measurements and visual inspection.

[3] = test system: HMLα locus in MATa cells; assay: Pheromone response assay, silencing at the HMLα locus in MATa cells; assay type: cell-based, S. cerevisiae
Source text: When haploid MATa cells are exposed to the mating pheromone […], they arrest in G1 phase of the cell cycle. Loss of silencing at the HMLα locus in MATa cells results in expression of a mating type genes (Marsh, L., et al. (1991) Annu. Rev. Cell Biol. 7, 699-728). The coexpression of α and a genes creates a pseudo-diploid state: cells are immune to […] and unable to mate.

[4] = test system: rDNA locus; assay: Recombination at the rDNA locus (loss of ADE2 integrated into the rDNA array); assay type: cell-based, S. cerevisiae
Method: Silencing within the rDNA locus is manifested in two ways. It can weakly repress expression of an inserted reporter gene (Smith, J. S. & Boeke, J. D. (1997) Genes Dev. 11, 241-54), and it reduces recombination between tandem copies of the ribosomal RNA genes (Gottlieb, S. & Esposito, R. E. (1989) Cell 56, 771-6). Recombination was analyzed by measuring the loss rate of an ADE2 gene integrated into the rDNA array essentially as described by Kaeberlein, M., et al. (1999 Genes Dev. 13, 2570-80). […] After six hours, the cultures were plated onto rich medium and the loss of expression of the ADE2 gene was measured and scored by the development of sectored red colonies. […] Treatment with SI increased recombination rate at the rDNA locus seven-fold, which is similar to rates observed in a sir2 mutant (FIG. 1D).

[5] = test system: wild type BY4741 cells vs sir2, hst1, hst2, hst3, hst4 deletion mutants; assay: Whole genome DNA microarray transcriptional profiling; assay type: cell-based, S. cerevisiae
Source text: In addition to SIR2, the S. cerevisiae genome encodes four SIR2 homologues: HST1-4 (Homologue of Sir Two) (Brachmann, C. B., et al. (1995) Genes Dev. 9, 2888-902). Hst2p is located in the cytoplasm and is responsible for virtually all the NAD^+-dependent deacetylase activity detected in a cellular lysate (Smith, J. S., et al., (2000) Proc. Natl. Acad. Sci. USA 97, 6658-63). Its relevant biological substrate is unknown. Hst1p is required for transcriptional repression of meiotic genes (Xie, J., et al. (1999) EMBO J. 18, 6448-54), whereas little is known about the cellular function of Hst3p or Hst4p.
Strains for the DNA array experiments for the whole genome analysis were obtained from Research Genetics (wild type BY4741: MATa his3, leu2, met15, […] or isogenic sir2, hst1, hst2, hst3 and hst4 deletion mutants). Several colonies from fresh cultures were inoculated into synthetic complete medium with 2% glucose, grown overnight at 30° C., diluted to 0.5−1×10^6 cell/ml and grown for an additional 6-9 hours until reaching a density of 0.5−1×10^7 cells/ml. […] Total RNA was extracted using the hot acid phenol method. Microarray construction and hybridization protocols were modified from those described elsewhere (DeRisi, J. L. et al. (1997) Science 278, 680-6). Briefly, yeast microarrays were constructed employing a set of ˜6200 or specific PCR primer pairs (Research Genetics, Huntsville, Ala.), which were used to amplify each open reading frame (orf) of the yeast genome. Individual PCR products were verified as unique via gel electrophoresis and purified using ARRAYIT 96-well PCR purification kits (TeleChem International, Sunnyvale, Calif.). Purified PCR products were mechanically “spotted” in 3×SSC (450 mM sodium chloride and 45 mM sodium citrate, pH 7.0) onto poly-lysine coated microscope slides using an OMNIGRID high-precision robotic gridder (GeneMachines, San Carlo, Calif.). […]

[6] = test system: mutant SIR2 (GAL-SIR2-Y298N or GAL-SIR2-H286Q); assay: HDA assay with drug resistant mutant Sir2p; assay type: biochemical, S. cerevisiae; settings: in vitro, equivalent amounts of protein
Method: Briefly, histone H4 was chemically acetylated using the HDAC Assay Kit (Upstate Biotechnology). […] For the histone deacetylase assays, 50 μg of yeast whole-cell protein extract was incubated with [^3H] acetylated histone H4-peptide (40,000 cpm) with or without 500 μM NAD^+ in a 100 μl reaction. The buffer contained 150 mM NaCl, 25 mM sodium phosphate pH 7.4 and 1 mM DTT. Reactions were incubated at 30° C. for 16 hours and were stopped by the addition of 25 μl of 1 N HCl and 0.15 N acetic acid. Released [^3H] acetate was extracted with 400 μl of ethyl acetate.
To obtain further insight into the molecular mechanism by which S I inhibited deacetylase activity of Sir2p, mutant forms of Sir2p were generated that were resistant to the compound. […] Plasmid DNA was recovered from the individual colonies and was retransformed into the test strain to assure that drug resistance was conferred by SIR2-containing plasmid.

[7] = test system: silent HML locus in G1-arrested MATa cells; assay: Maintenance of silent state in G1-arrested MATa cells; assay type: cell-based, S. cerevisiae
Source text: This was presumably due to loss of mating competence, a consequence of expression of the α2 gene from the “silent” HML locus. To test this idea more directly, a MATa strain with a single G1 cyclin gene (CLN3), which is under control of a galactose-inducible promoter (Cross, F. R. (1990) Mol. Cell Biol. 10, 6482-90), was arrested in G1 by replacing galactose with glucose in the media.

[8] = test system: Rat1a cells; assay: Sensitization to etoposide, 3H-thymidine incorporation viability; assay type: cell-based, rat; settings: S1 25, 50 and 100 μM with etoposide, 72 hours
Method: (§1) To test whether S1 could sensitize cells to DNA damage, mammalian cells were exposed to etoposide, a DNA damaging agent, in the presence and absence of S1. […] Viability of cells was assessed with 3H-thymidine incorporation.

[9] = test system: primary human fibroblasts (HFF); assay: as above; assay type: cell-based; settings: S1 25, 50 and 100 μM with etoposide, 72 hours
Method: as §1

[10] = test system: mammalian cells; assay: Toxicity assays using S1 and a variety of DNA damaging agents; assay type: cell-based
Source text: (1996) Science 272, 408-11)). In addition to histones, many other proteins are regulated by acetylation, including pRb, E2F and p53 proteins (Chan, H. M., et al. (2001) Nat. Cell Biol. 3,667-74; Martinez-Balbas, M. A., et al. (2000) EMBO J. 19,662-71; and Luo, J., et al. (2000) Nature 408, 377-81). Two recent reports (Vaziri, H., et al. (2001) Cell 107, 149-159 and Luo, J., et al. (2001) Cell 107, 137-148) implicate deacetylation of p53, by Sir2, in down-regulation of transcriptional and proapoptotic activities of p53 in response to DNA damage. […] P. (2001) Oncogene 20, 2988-90 and Tycko, […]. Clin. Invest 105, 245-6).

[11] = 50 μg/ml cycloheximide 40 minutes prior to S1

O=C1CCc2c(ccc3ccccc23)O1 [S1, 1,2-dihydro-3H-naphtho[2,1-b]pyran-3-one]
disruption of silencing in drug resistant SIR2 mutants vs wild type strains ([1]; SIR2-H286Q, SIR2-L287Q, SIR2-Y298N): required higher concentrations | silencing at telomeric loci ([1]; URA3 telomeric marker, uracil-deficient media, 0.5, 5 and 50 μM, 36-48 h): disrupted silencing | growth in media lacking tryptophan (loss of silencing at HMR) [2]: enabled cells to grow in media lacking tryptophan | silencing at HML [3]: disrupted silencing at HML | mating of MATa cells ([3]; in the presence of S1): defective for mating | responsiveness of MATa cells to α factor ([3]; in the presence of S1): lost responsiveness to α factor | silencing of a reporter gene within the rDNA locus [4]: disrupted silencing | increase of recombination rate at the rDNA locus ([4]; 15 μM, six hours, similar to rates in a sir2 mutant): seven-fold | effect on rDNA recombination in sir2 cells ([4]; sir2 cells treated with the compound): no effect | overlap with HST2, HST3 or HST4 regulated genes [5]: no overlap | transcriptional down-regulation by S1 in the absence of new protein synthesis [5, 11]: virtually all transcriptional down-regulation was abolished | upregulation of genes by S1 with cycloheximide [5, 11]: did not affect | inhibitory effect on histone deacetylase activity of mutant proteins vs wild type Sir2p [6]: increased resistance | α2 mRNA expression from HML in G1-arrested cells ([7]; CLN3 galactose-inducible strain arrested by glucose, DMSO control): detected only in the S1-treated cells | cell cycle progression of α factor G1-arrested MATa cells ([7]; untreated cells remained arrested in G1): progressed through the cell cycle | sensitization to etoposide [8]: dose-dependent sensitization | sensitization to etoposide [9]: dose-dependent sensitization | sensitization to DNA damaging agents [10]: sensitizes mammalian cells
